We go through eight molecules from ChEMBL document CHEMBL5325473, “Conformational study into N-alkyl-N'-aryl ureas to inform drug discovery” (Bioorg Med Chem, 2023).

Series [1] concerns the target Cyclin-dependent kinase 2 (Homo sapiens, UniProt P24941). The series is described as follows: Binding affinity to human Avi-tagged CDK2 expressed in Escherichia coli BL21 DE3 assessed as dissociation constant by Surface plasmon resonance analysis. (In general: Surface plasmon resonance follows binding to a sensor surface in real time, without labels.)
The target of series [2] is Epidermal growth factor receptor (Mus musculus, UniProt Q01279). The series is described as follows: Displacement of probe N-(4-(4-(3-((4-((3-chloro-4-fluorophenyl)amino)-7-methoxyquinazolin-6-yl)oxy)propyl)piperazin-1-yl)-4-oxobutyl)-3-(5,5-difluoro-7,9-dimethyl-5H-5l4,6l4-dipyrrolo[1,2-c:2',1'-f][1,3,2]diazaborinin-3-yl)propenamide from C-terminal His-tagged wild type mouse EGFR incubated for 30 mins by probe displacement based TR-FRET assay. On the technique in general: TR-FRET usually uses a lanthanide donor and a delayed reading to cut background.
Sequence of Epidermal growth factor receptor (Q01279 whole entry): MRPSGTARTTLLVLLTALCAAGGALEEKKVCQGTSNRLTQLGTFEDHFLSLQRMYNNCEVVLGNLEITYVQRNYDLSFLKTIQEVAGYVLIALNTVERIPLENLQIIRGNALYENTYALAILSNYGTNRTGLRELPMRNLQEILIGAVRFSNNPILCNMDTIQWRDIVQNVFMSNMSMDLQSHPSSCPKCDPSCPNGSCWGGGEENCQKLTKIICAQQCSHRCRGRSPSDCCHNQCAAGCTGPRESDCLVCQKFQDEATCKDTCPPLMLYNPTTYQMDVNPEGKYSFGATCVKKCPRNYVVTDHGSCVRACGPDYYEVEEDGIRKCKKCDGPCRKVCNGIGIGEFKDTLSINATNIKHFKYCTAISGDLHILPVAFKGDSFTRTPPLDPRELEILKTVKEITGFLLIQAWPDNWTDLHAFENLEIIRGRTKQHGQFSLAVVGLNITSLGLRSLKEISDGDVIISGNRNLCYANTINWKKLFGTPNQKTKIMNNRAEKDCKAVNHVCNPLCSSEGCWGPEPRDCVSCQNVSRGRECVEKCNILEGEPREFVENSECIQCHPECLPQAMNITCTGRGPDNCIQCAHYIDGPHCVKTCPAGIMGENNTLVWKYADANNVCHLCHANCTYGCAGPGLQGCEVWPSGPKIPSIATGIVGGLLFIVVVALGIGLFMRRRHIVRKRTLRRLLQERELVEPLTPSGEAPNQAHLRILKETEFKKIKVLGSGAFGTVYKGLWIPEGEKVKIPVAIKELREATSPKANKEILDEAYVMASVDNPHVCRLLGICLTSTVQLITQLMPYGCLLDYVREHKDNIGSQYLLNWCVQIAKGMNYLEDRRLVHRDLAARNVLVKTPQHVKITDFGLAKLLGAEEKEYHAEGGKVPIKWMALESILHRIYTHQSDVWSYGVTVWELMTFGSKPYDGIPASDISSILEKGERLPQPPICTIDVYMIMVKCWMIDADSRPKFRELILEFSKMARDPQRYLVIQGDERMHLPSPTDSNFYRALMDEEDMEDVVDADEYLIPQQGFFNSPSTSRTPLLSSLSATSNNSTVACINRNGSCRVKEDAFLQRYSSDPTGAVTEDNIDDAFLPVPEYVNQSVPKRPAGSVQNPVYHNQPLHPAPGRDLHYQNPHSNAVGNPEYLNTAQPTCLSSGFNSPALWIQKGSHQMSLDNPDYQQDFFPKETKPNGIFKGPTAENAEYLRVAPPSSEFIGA

Series [3] is described as follows: Chromatographic hydrophobicity index, log D of the compound by HPLC analysis. Type of series: physicochemical.
A short description of series [4]: Aqueous solubility of compound at pH 7.4. In kind it is physicochemical.

Values after ≈ are worked out from the molar mass of the structure shown.

As usually defined, the Kd is the concentration at which binding is half-saturated. As a reminder, the IC50 is the midpoint of a concentration-inhibition curve. High values mean lower potency, low ones higher potency. In general, chromatographic logD refers to lipophilicity estimated from chromatographic retention. The term solubility denotes how much of the substance goes into solution per volume. A higher solubility goes with a readily soluble substance. With `O=C(Nc1ccccc1)NC1CCCC1`, the Kd in series [1] is 1000 µM. The same molecule had an IC50 in series [2] of 200 µM. The chromatographic logD in series [3] was found to be 2.4. Besides, the concentration in solution in series [4] (solubility) was 85 µM (≈ 17.4 µg/mL).
Consider `CN(C(=O)Nc1ccccc1)C1CCCC1`, for which the Kd in series [1] was 2000 µM. The molecule further had an IC50 in series [2] greater than 1000 µM. In series [3], this molecule registered a chromatographic logD of 2.8. This molecule also gave a solubility in series [4] of 98 µM (≈ 21.4 µg/mL).
On the same counts, the results for `O=C(Nc1ccccn1)NC1CCCC1` are 398 µM, 398 µM, 2.4 and 93 µM (≈ 19.1 µg/mL).
For the molecule `CN(C(=O)N(C)C1CCCC1)c1ccccc1`, in series [1], the Kd was 3160 µM. The molecule also had an IC50 in series [2] of 126 µM. The molecule further returned a chromatographic logD in series [3] of 3.6. The molecule also gave a solubility in series [4] of 77 µM (≈ 17.9 µg/mL).
In the same order, the values of `CN(C(=O)N(C)C1CCCC1)c1ccccn1` are 15800 µM, greater than 1000 µM, 2.2 and 114 µM (≈ 26.6 µg/mL).
On the same counts, the results for `CN(C(=O)NC1CCCC1)c1ccccn1` are 1580 µM, greater than 1000 µM, 3 and 87 µM (≈ 19.1 µg/mL).
On the same counts, the results for `CN(C(=O)Nc1ccccn1)C1CCCC1` are 2510 µM, 794 µM, 2.1 and 102 µM (≈ 22.4 µg/mL).
`CN(C(=O)NC1CCCC1)c1ccccc1`: the Kd in series [1] is 7940 µM. The same molecule gave an IC50 in series [2] of 100 µM. In series [3], the chromatographic logD worked out at 2.7. Besides, the solubility in series [4] is 104 µM (≈ 22.7 µg/mL).
